ChEMBL document CHEMBL2375248, “C1 and N5 derivatives of cerpegin: synthesis of a new series based on structure-activity relationships to optimize their inhibitory effect on 20S proteasome” (Bioorg Med Chem Lett, 2013)
Active and inactive are the calls of the source. The rule behind the calls is not given here.

What was measured:
[1] = biological target: Cathepsin B (Homo sapiens) (UniProt P07858); test: Inhibition of cathepsin B in human hepatocytes using Z-RR-AMC as substrate by fluorescence assay; format: cell-based; details: Hepatocyte
[2] = Inhibition of caspase-like activity of 20S proteasome in rabbit erythrocytes using Z-LLE-betaNA as substrate preincubated for 15 mins measured after 45 mins by fluorescence assay; format: cell-based, Oryctolagus cuniculus
[3] = Inhibition of trypsin-like activity of 20S proteasome in rabbit erythrocytes using Boc-LRR-AMC as substrate preincubated for 15 mins measured after 45 mins by fluorescence assay; format: cell-based, Oryctolagus cuniculus
[4] = Inhibition of chymotrypsin-like activity of 20S proteasome in rabbit erythrocytes using Suc-LLVY-AMC as substrate preincubated for 15 mins measured after 45 mins by fluorescence assay; format: cell-based, Oryctolagus cuniculus
[5] = species on record: Oryctolagus cuniculus; test: Inhibition of caspase-like activity of 20S proteasome in rabbit erythrocytes using Z-LLE-betaNA as substrate at 100 uM preincubated for 15 mins measured after 45 mins by fluorescence assay relative to control
[6] = species on record: Oryctolagus cuniculus; test: Inhibition of chymotrypsin-like activity of 20S proteasome in rabbit erythrocytes using Suc-LLVY-AMC as substrate at 100 uM preincubated for 15 mins measured after 45 mins by fluorescence assay relative to control; format: cell-based
[7] = biological target: T1, Calpain-1 catalytic subunit (Homo sapiens, UniProt P07384); test: Inhibition of calpain 1 in human erythrocytes using Suc-LLVY-AMC as substrate by fluorescence assay; format: cell-based
T1 sequence (P07384 whole entry): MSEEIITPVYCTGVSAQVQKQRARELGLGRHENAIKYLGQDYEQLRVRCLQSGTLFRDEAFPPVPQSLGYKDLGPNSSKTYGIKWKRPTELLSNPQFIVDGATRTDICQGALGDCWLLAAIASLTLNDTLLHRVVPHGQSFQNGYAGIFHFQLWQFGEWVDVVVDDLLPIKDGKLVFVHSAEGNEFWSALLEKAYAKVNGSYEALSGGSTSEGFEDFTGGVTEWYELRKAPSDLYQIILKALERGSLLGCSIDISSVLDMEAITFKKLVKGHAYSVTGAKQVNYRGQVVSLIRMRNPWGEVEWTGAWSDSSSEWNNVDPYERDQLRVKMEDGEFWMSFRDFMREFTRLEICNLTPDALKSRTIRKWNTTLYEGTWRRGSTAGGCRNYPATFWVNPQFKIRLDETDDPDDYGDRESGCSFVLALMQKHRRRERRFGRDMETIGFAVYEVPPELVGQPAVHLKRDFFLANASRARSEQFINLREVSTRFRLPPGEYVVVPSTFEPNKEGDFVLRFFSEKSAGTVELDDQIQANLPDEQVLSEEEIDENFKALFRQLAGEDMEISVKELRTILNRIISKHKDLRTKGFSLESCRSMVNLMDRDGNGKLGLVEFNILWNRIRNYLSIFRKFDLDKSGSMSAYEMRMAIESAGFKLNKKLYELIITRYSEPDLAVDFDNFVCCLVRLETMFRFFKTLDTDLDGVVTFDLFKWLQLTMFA

Row | Structure (SMILES) | inhibition [1] | IC50 ([2]; read-out: IC50) [µM] | IC50 [3] | IC50 [4] | inhibition [5] [%] | IC50 [2] | IC50 [7] [µM] | inhibition [6] [%] | IC50 ([3]; read-out: IC50) [µM] | IC50 ([4]; read-out: IC50) [µM]
1 | CC1(C)OC(=O)c2c1ccn(-c1ccc(S(=O)(=O)NC(=O)c3ccccc3)cc1)c2=O | inactive | 4.5 | Not Active | Not Active | – | – | – | – | – | –
2 | O=C1OC2(CCCCC2)c2ccn(CC(O)CN3CCOCC3)c(=O)c21 (configuration not stated) | inactive | – | Not Active | Not Active | 30.7 | – | – | – | – | –
3 | NC(=S)Nn1ccc2c(c1=O)C(=O)OC21CCCCC1 | inactive | – | Not Active | – | – | Not Active | – | 23.8 | – | –
4 | C[C@@]12OC(=O)[C@]1([C@@H](O)[C@@H]1C=CCCC1)NC(=O)[C@@H]2CCCl [MARIZOMIB] | – | 0.46 | – | – | – | – | – | – | 0.021 | 0.0026
5 | Cc1noc(NS(=O)(=O)c2ccc(-n3ccc4c(c3=O)C(=O)OC4(C)C)cc2)c1C | inactive | – | Not Active | Not Active | 51 | – | – | – | – | –
6 | O=C1OC2(CCCCC2)c2ccn(CC(O)CO)c(=O)c21 (configuration not stated) | inactive | 8.1 | Not Active | Not Active | – | – | – | – | – | –
7 | CC1(C)OC(=O)c2c1ccn(-c1ccc(S(=O)(=O)Nc3ccnn3-c3ccccc3)cc1)c2=O | inactive | – | Not Active | Not Active | 28 | – | – | – | – | –
8 | CC1(C)OC(=O)c2c1ccn(-c1ccc(S(=O)(=O)Nc3ccccn3)cc1)c2=O | inactive | – | Not Active | Not Active | 64 | – | – | – | – | –
9 | Cc1cc(-n2ccc3c(c2=O)C(=O)OC32CCCCC2)n(-c2ccccc2)n1 | inactive | – | Not Active | Not Active | – | Not Active | – | – | – | –
10 | CC1(C)OC(=O)c2c1ccn(-c1ccc(S(=O)(=O)Nc3ncccn3)cc1)c2=O | inactive | – | Not Active | Not Active | 51 | – | – | – | – | –
11 | CC1(C)CC2(CCO1)OC(=O)c1c2ccn(CCCN2CCOCC2)c1=O (configuration not stated) | inactive | 54.7 | Not Active | Not Active | – | – | – | – | – | –
12 | CCN(CC)CC(O)Cn1ccc2c(c1=O)C(=O)OC21CCCCC1 (configuration not stated) | inactive | 6.7 | Not Active | Not Active | – | – | – | – | – | –
13 | O=C1OC2(CCCCC2)c2ccn(CC(O)c3ccccc3)c(=O)c21 (configuration not stated) | inactive | 11.9 | Not Active | Not Active | – | – | – | – | – | –
14 | NS(=O)(=O)c1ccc(-n2ccc3c(c2=O)C(=O)OC32CCCCC2)cc1 | inactive | 6.6 | Not Active | Not Active | – | – | – | – | – | –
15 | O=C1OC2(CCCCC2)c2ccn(CCCN3CCOCC3)c(=O)c21 | inactive | 46.9 | Not Active | Not Active | – | – | – | – | – | –
16 | CCN(CC)CC(O)Cn1ccc2c(c1=O)C(=O)OC21CCOC(C)(C)C1 (configuration not stated) | inactive | 4.1 | Not Active | Not Active | – | – | – | – | – | –
17 | CC1(c2ccccc2)OC(=O)c2c1ccn(CCCN1CCOCC1)c2=O (racemic) | inactive | 56.4 | Not Active | Not Active | – | – | – | – | – | –
18 | CC1(Cc2ccccc2)OC(=O)c2c1ccn(-c1ccc(S(N)(=O)=O)cc1)c2=O (racemic) | inactive | 3.6 | Not Active | Not Active | – | – | – | – | – | –
19 | CC1(C)OC(=O)c2c1ccn(-c1ccc(S(=O)(=O)Nc3nccs3)cc1)c2=O | inactive | – | Not Active | Not Active | 22 | – | – | – | – | –

Second part, led by results:

Row | inhibition [1] | IC50 ([2]; read-out: IC50) [µM] | IC50 [3] | IC50 [4] | inhibition [5] [%] | IC50 [2] | IC50 [7] [µM] | Structure (SMILES) | inhibition [6] [%] | IC50 ([3]; read-out: IC50) [µM] | IC50 ([4]; read-out: IC50) [µM]
20 | inactive | 5.7 | Not Active | Not Active | – | – | – | CC(=O)NS(=O)(=O)c1ccc(-n2ccc3c(c2=O)C(=O)OC3(C)C)cc1 | – | – | –
21 | inactive | 4.8 | Not Active | Not Active | – | – | – | CC(C)CC1(C)OC(=O)c2c1ccn(CC(O)c1ccccc1)c2=O (configuration not stated) | – | – | –
22 | inactive | 36 | Not Active | Not Active | – | – | – | Cn1ccc2c(c1=O)C(=O)OC2(C)c1ccccc1 (racemic) | – | – | –
23 | inactive | 7 | Not Active | – | – | – | 29.6 | CC1(Cc2ccccc2)OC(=O)c2c1ccn(CCc1ccc(Cl)cc1)c2=O (racemic) | – | – | 22.5
24 | inactive | 12.7 | Not Active | Not Active | – | – | – | CC(C)CC1(C)OC(=O)c2c1ccn(CCc1ccc(Cl)cc1)c2=O (racemic) | – | – | –
25 | inactive | 4.6 | Not Active | Not Active | – | – | – | CC(C)CC1(C)OC(=O)c2c1ccn(-c1ccc(S(N)(=O)=O)cc1)c2=O (racemic) | – | – | –
26 | inactive | 2.5 | Not Active | Not Active | – | – | – | CCN(CC)CC(O)Cn1ccc2c(c1=O)C(=O)OC2(C)CCc1ccccc1 (mixture of isomers) | – | – | –
27 | inactive | 4.4 | Not Active | Not Active | – | – | – | CCN(CC)CC(O)Cn1ccc2c(c1=O)C(=O)OC2(C)c1ccccc1 (mixture of isomers) | – | – | –
28 | inactive | 19.6 | Not Active | Not Active | – | – | – | CC1(CCc2ccccc2)OC(=O)c2c1ccn(CCCN1CCOCC1)c2=O (racemic) | – | – | –
29 | inactive | 6.1 | Not Active | Not Active | – | – | – | CC1(C)OC(=O)c2c1ccn(-c1ccc(S(N)(=O)=O)cc1)c2=O | – | – | –
30 | inactive | – | Not Active | Not Active | 31.8 | – | – | CC(C)CC1(C)OC(=O)c2c1ccn(CCCN1CCOCC1)c2=O (racemic) | – | – | –
31 | inactive | 5.9 | Not Active | Not Active | – | – | – | CC1(C)OC(=O)c2c1ccn(-c1ccc(S(=O)(=O)NC(=N)N)cc1)c2=O | – | – | –
32 | inactive | 2.8 | Not Active | Not Active | – | – | – | CC1(CCc2ccccc2)OC(=O)c2c1ccn(-c1ccc(S(N)(=O)=O)cc1)c2=O (racemic) | – | – | –
33 | inactive | 4.9 | Not Active | Not Active | – | – | – | CCC1(C)OC(=O)c2c1ccn(-c1ccc(S(N)(=O)=O)cc1)c2=O (racemic) | – | – | –
